{"source": "ChEMBL document CHEMBL1156945", "about": "“Discovery of a novel selective PPARgamma modulator from (-)-Cercosporamide derivatives” (Bioorg Med Chem Lett, 2010)", "key": {"Mus musculus [1]": {"species": "Mus musculus", "assay": "Antihyperglycemic activity in KK/Ta mouse assessed as reduction in body weight at 0.01% in diet after 7 days relative to control", "assay_type": "functional", "design": "scale not given: the % may be the effect or the level left"}, "Mus musculus [2]": {"species": "Mus musculus", "assay": "Antihyperglycemic activity in KK/Ta mouse assessed as reduction in plasma glucose level at 0.01% in diet relative to control", "assay_type": "functional", "design": "scale not given: the % may be the effect or the level left"}, "Mus musculus [3]": {"species": "Mus musculus", "assay": "Antihyperglycemic activity in KK/Ta mouse assessed as reduction in food intake at 0.01% in diet after 7 days relative to control", "assay_type": "functional", "design": "scale not given: the % may be the effect or the level left"}, "[4]": {"target": "T1, Peroxisome proliferator-activated receptor gamma (Homo sapiens, UniProt P37231)", "T1 sequence (P37231 whole entry)": "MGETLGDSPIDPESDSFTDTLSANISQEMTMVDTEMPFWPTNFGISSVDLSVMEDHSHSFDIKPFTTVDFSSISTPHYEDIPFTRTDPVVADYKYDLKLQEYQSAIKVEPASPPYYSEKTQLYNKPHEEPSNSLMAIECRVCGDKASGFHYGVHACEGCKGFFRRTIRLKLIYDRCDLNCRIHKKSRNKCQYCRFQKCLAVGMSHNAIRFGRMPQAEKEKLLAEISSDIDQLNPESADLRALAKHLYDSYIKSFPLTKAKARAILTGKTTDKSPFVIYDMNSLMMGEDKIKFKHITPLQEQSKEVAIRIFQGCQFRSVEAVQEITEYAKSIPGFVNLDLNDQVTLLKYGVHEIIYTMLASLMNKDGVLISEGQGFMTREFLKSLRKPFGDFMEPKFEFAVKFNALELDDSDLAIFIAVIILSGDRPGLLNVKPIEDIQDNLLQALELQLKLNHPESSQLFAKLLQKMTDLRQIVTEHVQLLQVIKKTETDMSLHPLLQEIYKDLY", "description": "(§1) Agonist activity at PPARgamma assessed as transcriptional activation"}, "[5]": {"target": "T1, Peroxisome proliferator-activated receptor gamma", "assay": "Binding affinity to PPARgamma"}, "[6]": {"target": "T2, Peroxisome proliferator-activated receptor delta (Homo sapiens) (UniProt Q03181)", "T2 sequence (whole entry)": "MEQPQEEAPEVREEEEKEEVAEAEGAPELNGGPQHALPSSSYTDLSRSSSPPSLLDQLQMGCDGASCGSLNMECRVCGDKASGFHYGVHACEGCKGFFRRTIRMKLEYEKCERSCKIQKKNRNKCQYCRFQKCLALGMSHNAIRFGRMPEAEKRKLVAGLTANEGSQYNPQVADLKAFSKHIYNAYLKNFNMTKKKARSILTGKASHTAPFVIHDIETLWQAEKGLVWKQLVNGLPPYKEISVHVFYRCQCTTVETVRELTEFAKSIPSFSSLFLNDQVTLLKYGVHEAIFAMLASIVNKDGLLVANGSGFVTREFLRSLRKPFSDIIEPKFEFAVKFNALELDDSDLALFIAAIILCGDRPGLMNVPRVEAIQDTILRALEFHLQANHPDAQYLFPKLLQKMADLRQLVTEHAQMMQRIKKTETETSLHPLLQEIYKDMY", "assay": "Agonist activity at PPARdelta by transactivation assay", "assay_type": "functional"}, "Mus musculus [7]": {"test_system": "Mus musculus", "assay": "Toxicity in db/db mouse assessed as heart weight administered at 0.01% in diet (Rvb=102+/-4.8 mg)", "assay_type": "organism-based", "details": "in vivo, po"}, "[8]": {"target": "T3, Peroxisome proliferator-activated receptor alpha (Homo sapiens) (UniProt Q07869)", "T3 sequence (whole entry)": "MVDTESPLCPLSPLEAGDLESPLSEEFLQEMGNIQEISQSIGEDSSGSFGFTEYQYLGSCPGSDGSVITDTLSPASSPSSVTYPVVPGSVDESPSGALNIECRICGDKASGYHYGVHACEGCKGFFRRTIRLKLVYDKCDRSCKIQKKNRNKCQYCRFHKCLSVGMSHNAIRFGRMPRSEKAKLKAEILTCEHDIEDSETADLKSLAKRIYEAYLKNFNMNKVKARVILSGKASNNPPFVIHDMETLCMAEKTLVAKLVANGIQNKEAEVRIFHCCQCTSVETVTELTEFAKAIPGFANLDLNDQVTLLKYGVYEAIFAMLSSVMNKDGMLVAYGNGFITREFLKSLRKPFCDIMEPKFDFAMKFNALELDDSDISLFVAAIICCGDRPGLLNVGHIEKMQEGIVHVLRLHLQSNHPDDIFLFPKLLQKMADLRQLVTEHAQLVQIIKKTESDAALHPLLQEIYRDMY", "assay": "Agonist activity at PPARalpha by transactivation assay", "assay_type": "functional"}, "Mus musculus [9]": {"test_system": "Mus musculus", "assay": "Toxicity in db/db mouse assessed as heart weight administered at 0.1% in diet (Rvb=102+/-4.8 mg)", "assay_type": "organism-based", "details": "in vivo, po"}, "[10]": {"target": "T1, Peroxisome proliferator-activated receptor gamma", "remark": "listed apart in the source", "description": "as §1"}, "[11]": {"target": "T1, Peroxisome proliferator-activated receptor gamma", "assay": "Inhibition of PPARgamma assessed as transcriptional activity"}}, "note": "Activity calls are given as the source filed them. The rule behind the calls is not given here.", "data": [{"compound": "CC(=O)C1=C(O)C=C2Oc3c4c(cc(O)c3[C@]2(C)C1=O)OC(C)(C)NC4=O", "values": [{"measurement": "Activity", "setting": "Mus musculus [1]", "result": 102, "unit": "%"}, {"measurement": "Activity", "setting": "Mus musculus [2]", "result": 56, "unit": "%"}, {"measurement": "Activity", "setting": "Mus musculus [3]", "result": 78, "unit": "%"}]}, {"compound": "COC1Oc2cc(O)c3c(c2C(=O)N1C(=O)NCc1ccc(Cl)cc1)OC1=CC(O)=C(C(C)=O)C(=O)[C@]13C", "note": "(stereo partly drawn)", "values": [{"measurement": "EC50", "setting": "[4]", "result": 0.77, "unit": "µM"}]}, {"compound": "COC1Oc2cc(O)c3c(c2C(=O)N1C(=O)NCc1ccccc1[N+](=O)[O-])OC1=CC(O)=C(C(C)=O)C(=O)[C@]13C", "note": "(stereo partly drawn)", "values": [{"measurement": "EC50", "setting": "[4]", "result": 1.6, "unit": "µM"}]}, {"compound": "COC1Oc2cc(O)c3c(c2C(=O)N1C(=O)NCc1cc2ccccc2o1)OC1=CC(O)=C(C(C)=O)C(=O)[C@]13C", "note": "(stereo partly drawn)", "values": [{"measurement": "EC50", "setting": "[4]", "result": 2.3, "unit": "µM"}]}, {"compound": "COC1Oc2cc(O)c3c(c2C(=O)N1C(=O)NCc1cccc(Cl)c1)OC1=CC(O)=C(C(C)=O)C(=O)[C@]13C", "note": "(stereo partly drawn)", "values": [{"measurement": "EC50", "setting": "[4]", "result": 6.7, "unit": "µM"}]}, {"compound": "COC1Oc2cc(O)c3c(c2C(=O)N1C(=O)NCc1ccc([N+](=O)[O-])cc1)OC1=CC(O)=C(C(C)=O)C(=O)[C@]13C", "note": "(stereo partly drawn)", "values": [{"measurement": "EC50", "setting": "[4]", "result": 6, "unit": "µM"}]}, {"compound": "CC(=O)C1=C(O)C=C2Oc3c4c(cc(O)c3[C@]2(C)C1=O)OC(C)(C)N(Cc1ccccc1)C4=O", "values": [{"measurement": "Activity", "setting": "Mus musculus [1]", "result": 103, "unit": "%"}, {"measurement": "Activity", "setting": "Mus musculus [2]", "result": 55, "unit": "%"}, {"measurement": "Activity", "setting": "Mus musculus [3]", "result": 74, "unit": "%"}]}, {"compound": "COC1Oc2cc(O)c3c(c2C(=O)N1C(=O)NCc1cccc2ccccc12)OC1=CC(O)=C(C(C)=O)C(=O)[C@]13C", "note": "(stereo partly drawn)", "values": [{"measurement": "EC50", "setting": "[4]", "result": 0.18, "unit": "µM"}, {"measurement": "Ki", "setting": "[5]", "result": 0.082, "unit": "µM"}, {"measurement": "Activity", "setting": "[6]", "result": "inactive"}, {"measurement": "Activity", "setting": "Mus musculus [7]", "result": 102.8, "unit": "mg"}, {"measurement": "Activity", "setting": "[8]", "result": "inactive"}, {"measurement": "Activity", "setting": "Mus musculus [9]", "result": 103.8, "unit": "mg"}]}, {"compound": "COC1Oc2cc(O)c3c(c2C(=O)N1C(=O)NCc1ccccn1)OC1=CC(O)=C(C(C)=O)C(=O)[C@]13C", "note": "(stereo partly drawn)", "values": [{"measurement": "EC50", "setting": "[10]", "result": "Not Active"}]}, {"compound": "COC1Oc2cc(O)c3c(c2C(=O)N1C(=O)NCc1cccnc1)OC1=CC(O)=C(C(C)=O)C(=O)[C@]13C", "note": "(stereo partly drawn)", "values": [{"measurement": "EC50", "setting": "[4]", "result": 11, "unit": "µM"}]}, {"compound": "COC1Oc2cc(O)c3c(c2C(=O)N1C(=O)NCc1ccsc1)OC1=CC(O)=C(C(C)=O)C(=O)[C@]13C", "note": "(stereo partly drawn)", "values": [{"measurement": "EC50", "setting": "[4]", "result": 4.4, "unit": "µM"}]}, {"compound": "COC1Oc2cc(O)c3c(c2C(=O)N1C(=O)NCc1ccoc1)OC1=CC(O)=C(C(C)=O)C(=O)[C@]13C", "note": "(stereo partly drawn)", "values": [{"measurement": "EC50", "setting": "[4]", "result": 3.2, "unit": "µM"}]}, {"compound": "COc1cc(O)c2c(c1C(=O)NCc1ccccc1)OC1=CC(O)=C(C(C)=O)C(=O)[C@]12C", "values": [{"measurement": "EC50", "setting": "[4]", "result": 0.22, "unit": "µM"}, {"measurement": "Activity", "setting": "Mus musculus [1]", "result": 101, "unit": "%"}, {"measurement": "Activity", "setting": "Mus musculus [2]", "result": 69, "unit": "%"}, {"measurement": "Activity", "setting": "Mus musculus [3]", "result": 100, "unit": "%"}]}, {"compound": "COc1ccc(CNC(=O)N2C(=O)c3c(cc(O)c4c3OC3=CC(O)=C(C(C)=O)C(=O)[C@]34C)OC2OC)cc1", "note": "(stereo partly drawn)", "values": [{"measurement": "EC50", "setting": "[4]", "result": 1.7, "unit": "µM"}]}, {"compound": "COC1Oc2cc(O)c3c(c2C(=O)N1C(=O)NCc1cc2ccccc2s1)OC1=CC(O)=C(C(C)=O)C(=O)[C@]13C", "note": "(stereo partly drawn)", "values": [{"measurement": "EC50", "setting": "[4]", "result": 3.8, "unit": "µM"}]}, {"compound": "COC1Oc2cc(O)c3c(c2C(=O)N1C(=O)NCc1cccs1)OC1=CC(O)=C(C(C)=O)C(=O)[C@]13C", "note": "(stereo partly drawn)", "values": [{"measurement": "EC50", "setting": "[4]", "result": 1.2, "unit": "µM"}]}, {"compound": "COC1Oc2cc(O)c3c(c2C(=O)N1C(=O)NCc1ccco1)OC1=CC(O)=C(C(C)=O)C(=O)[C@]13C", "note": "(stereo partly drawn)", "values": [{"measurement": "EC50", "setting": "[4]", "result": 0.56, "unit": "µM"}, {"measurement": "IC50", "setting": "[11]", "result": 13, "unit": "µM"}]}, {"compound": "COC1Oc2cc(O)c3c(c2C(=O)N1C(=O)NCc1ccccc1Cl)OC1=CC(O)=C(C(C)=O)C(=O)[C@]13C", "note": "(stereo partly drawn)", "values": [{"measurement": "EC50", "setting": "[4]", "result": 0.28, "unit": "µM"}]}, {"compound": "COc1cccc(CNC(=O)N2C(=O)c3c(cc(O)c4c3OC3=CC(O)=C(C(C)=O)C(=O)[C@]34C)OC2OC)c1", "note": "(stereo partly drawn)", "values": [{"measurement": "EC50", "setting": "[4]", "result": 3.8, "unit": "µM"}]}, {"compound": "COC1Oc2cc(O)c3c(c2C(=O)N1C(=O)NCc1cccc([N+](=O)[O-])c1)OC1=CC(O)=C(C(C)=O)C(=O)[C@]13C", "note": "(stereo partly drawn)", "values": [{"measurement": "EC50", "setting": "[4]", "result": 2.4, "unit": "µM"}]}]}
